The structures appear in SMILES notation.

Data set [1] addresses T1, CRY2 (Homo sapiens, UniProt Q49AN0).
T1 construct: To evaluate the effect of FORMULA I on the endogenous protein and mRNA level of clock genes; endogenous in cells; host or cells: U2-OS
T1 sequence (Q49AN0 1-593): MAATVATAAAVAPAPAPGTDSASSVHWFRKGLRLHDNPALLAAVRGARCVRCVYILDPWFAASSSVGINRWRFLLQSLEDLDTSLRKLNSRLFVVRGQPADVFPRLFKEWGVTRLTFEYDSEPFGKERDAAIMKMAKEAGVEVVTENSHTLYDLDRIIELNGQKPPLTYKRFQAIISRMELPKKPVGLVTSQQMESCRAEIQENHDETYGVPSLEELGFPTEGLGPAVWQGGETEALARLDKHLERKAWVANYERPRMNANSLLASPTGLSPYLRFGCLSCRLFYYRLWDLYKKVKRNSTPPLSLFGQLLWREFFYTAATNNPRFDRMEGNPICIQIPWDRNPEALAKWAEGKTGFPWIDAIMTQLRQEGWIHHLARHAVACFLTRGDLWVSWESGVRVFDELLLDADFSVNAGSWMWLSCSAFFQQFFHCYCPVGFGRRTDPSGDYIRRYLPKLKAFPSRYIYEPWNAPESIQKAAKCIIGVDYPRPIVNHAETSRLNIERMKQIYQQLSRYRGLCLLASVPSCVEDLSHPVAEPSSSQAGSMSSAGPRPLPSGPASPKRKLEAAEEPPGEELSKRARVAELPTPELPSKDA
Kind of data set: Protein immunoblot, unsynchronized U2-OS cells, CRY2. Format: cell-based. The following applies: Western blot. On the procedure:
Cells were lysed in RIPA buffer (50 mM Tris, 150 mM NaCl, 1% Triton-X, 0.1% SDS) with fresh Protease inhibitor cocktail (PIC). After centrifugation at 13000 rpm for 15 minutes at 4° C., supernatant was used to determine the protein amount using Pierce Protein Assay (Thermo Scientific) according to the manufacturer's instruction. Mice liver samples were homogenized and lysed with Dounce homogenizer and RIPA buffer. After homogenization samples were incubated 10 minutes on ice. After centrifugation 13000 rpm 15 minutes at 4° C. supernatant was used for the whole cell lysate. Subcellular fractionation of liver samples: Liver samples were homogenized with cytosolic lysis buffer (10 mM HEPES pH 7.9, 10 mM KCl, 0.1 mM EDTA, 0.05% NP40, proteasome inhibitor) by pipetting 40 times with a cut tip. Then samples were incubated 10 minutes on ice and centrifuged for 3 minutes at 3000 rpm at 4° C. Supernatant was saved in a new tube, and pellet was processed for the nuclear fraction. Supernatant was centrifuged at 13000 rpm for 3 minutes at 4° C. where new supernatant saved as the cytosolic fraction. […] ECL buffer system (Advansta WesternBright) was used to visualize HRP chemi-luminescence via BioRad ChemiDoc Touch visualizer.

The test system of data set [2] is C57BL/6J mice. Kind of data set: Repeated dose toxicity study, 14-day subacute toxicity. In kind it is in vivo. The conditions noted are these: 60 mg/kg i.p. for 14 days. On the procedure: According to the results of the 5-day maximum tolerated dose determination study, FORMULA I dose was determined as 60 mg/kg for the next 14-day subacute toxicity study. In this study, C57BL/6J mice (n=10) were treated with 60 mg/kg dose of FORMULA I intraperitoneally for 14 days. Control mice (n=5) were only treated with vehicle. Following this, aforementioned procedure (5-day maximum tolerated dose determination study) has been conducted in the same way.

Data set [3] is described as follows: Plasma pharmacokinetics in mice. Format: in vivo. The following applies: female, C57BL/6J, mouse, ip, 100 mg/kg, single dose, i.p., read-out: AUC0-24.
Data set [4] relates to C57BL/6J mice. Kind of data set: Circadian behavioral analysis (locomotor activity). Format: in vivo, mouse. The following applies: constant dark conditions. The method, then: C57BL/6J mice were synchronized 10 days under 12 h:12 h light-dark cycles. After 10 days mice were treated with intraperitoneal dose of 60 mg/kg FORMULA I or vehicle for 14 days and kept under constant darkness (n=12). Locomotor activity of mice were recorded for additional 10-days without any injection. During these days locomotor activity of mice were recorded by ClockLab (Actimetrics) software program. FIG. 7A Representative locomotor activity of mice injected with vehicle (n=5) or FIG. 7B FORMULA I (n=7). FIG. 7C Period and FIG. 7D amplitude of mice under different conditions and injected with vehicle or FORMULA I. Period and amplitude values were calculated by using ClockLab Analysis (Actimetrics) program. Statistical significance was evaluated using one-way analysis of variance (ANOVA), followed by a Tukey's multiple comparisons test using Prism software (GraphPad Software)
Mice were housed in individual cages within a temperature- and humidity-controlled, light-tight enclosure. Each cage contained a running wheel. Food and water were allowed ad libitum. Animals were entrained to a 12:12 h L:D cycle for ≥2 weeks before being released into constant darkness. Then, vehicle (n=5) and FORMULA I (n=6) administered to animals for 5 days and then animals were kept under constant conditions for more than 2 weeks. […]

In the case of `Cc1c(C(=O)N2CCc3ccccc32)oc2ccc3c(c12)C(=O)CC(C)(c1ccc(Cl)cc1)O3` (stereo not drawn) [FORMULA I, 11-(4-chlorophenyl)-4-(2,3-dihydro-1H-indole-1-carbonyl)-3,11-dimethyl-5,10,dioxatricyclo[7.4.0.0,2,6,]trideca-1,3,6,8-tetraen-13-one], the “level of CRY2” value in data set [1] is given as “CRY2 levels were comparable”. Also, the “body temperature (mild hypothermia)” value in data set [2] (during injections) is 33.7-35.4 °C. The “highest mean body weight loss” value in data set [2] (first day following administration) stood at 3.7%. Further, in data set [3], the AUC(0-t) was determined as 4920 ± 3070 ng·h/mL. For the same compound, in data set [4], the “amplitude of locomotor activity” value is on record as “statistically significant impact on the amplitude” and the “shortening of locomotor period length versus vehicle” value is “approximately 14 min”.

Source of the values: patent US20230104487A1, “11-(4-CHLOROPHENYL)-4-(2,3-DIHYDRO-1H-INDOLE-1-CARBONYL)-3,11-DIMETHYL-5,10,DIOXATRICYCLO[7.4.0.0,2,6,]TRIDECA-1,3,6,8-TETRAEN-13-ONE AND DERIVATIVES AS DESTABILIZER OF CRY1 FOR THE TREATMENT OF CIRCADIAN RHYTHM ASSOCIATED DISEASES AND DISORDERS” (KOC UNIVERSITESI, priority 2019, published 2023).
